# Legend:
# [1] = tested on: S6K1 (Thr389) phosphorylation (mTORC1 activity) in FKBP12 knock-out 293T cells; experiment: Inhibition of S6K1 (Thr389) phosphorylation in FKBP12 knock-out 293T cells (ELISA); assay type: cell-based, human; conditions: for selectivity for FKBP12 compared with RAD001 (in words): wild-type versus FKBP12 knock-out cells; for inhibition at 10 µM: Homo sapiens, HEK-293T, 10 μM (highest tested concentration)
# Source text: Example Generation of FKBP 12 knock-out cells. A CRISPR/Cas9 system was used to deliver ribonucleoprotein complexes containing guide RNA sequences that target FKBP12 (ac[…], location 1369062; ccactactcac[…], location 1369181) in HEK293T cells using Lipofectamine CRISPRMAX transfection reagent (Invitrogen CMAX00008). Cell clones were screened by immunoblotting with anti-FKBP-specific antibody (Novus, NB300-508). Single cells that were deficient for FKBP12 protein were selected and cloned.
# (§1) Treatment of wild-type (WT) and FKBP12 knock-out 293T cells with RAD001 (everolimus) and test compounds. WT and FKBP12 knock-out 293T cells were cultured in Dulbecco's modified Eagle's medium (Gibco #11971-025) supplemented with 10% fetal bovine serum (Gibco #26140-079). Cells were plated at a density of 15,000 cells per well in poly-D-Lysine coated 96-well plates (Corning, #354461) and were incubated at 37° C., 5% CO2 for 24 hours until they reached ˜80% confluence. Cells were treated with RAD001 or test compounds reconstituted in dimethyl sulfoxide (DMSO) using a 8-11-point dose range, from 0.001 pM to 10 μM. All treatments were performed in duplicates for 2 hours at 37° C. Cell culture media supplemented with blank dimethyl sulfoxide (DMSO) was used as a negative control for all compounds. Phosphorylated amounts of S6K1 (Thr389) were measured using an ELISA kit (Invitrogen 85-86052-11), following the manufacture's protocol.
# (§2) S6K1 is an immediate downstream target of mTORC1 and therefore phosphorylation of S6K1 at Thr389 residue is used to measure mTORC1 activity (PMID: 16968213). Amounts of phosphorylated S6K1 (Thr389) were measured in WT and FKBP12 knock-out 293T cells treated with either RAD001 or Compound 44 (FIGS. 1A and 1B), and Compound 45 (FIGS. 1C and 1D).
# [2] = In vitro microsomal metabolic stability, human liver microsomes; assay type: in vitro ADME; conditions: for Remaining (T = 60 min) / Remaining (T = NCF60 min) / half-life at 1 µM: Human liver microsomes; for Remaining (T = 60 min): with NADPH; for Remaining (T = NCF60 min): without NADPH regenerating system; for Remaining (T = 60 min) / Remaining (T = NCF60 min): 60 min; for CLint scaled at 1 µM / microsomal CLint at 1 µM: human, human liver microsomes; for CLint scaled at 1 µM / microsomal CLint at 1 µM / half-life at 1 µM: pH 7.2; for half-life at 1 µM: 0.5 mg/ml protein, NADPH
# Description: (§3) Buffers: PBK Buffer: 50 mM potassium phosphate buffer (PPB), pH 7.2, with 3.3 mM Magnesium Chloride.
# (§4) TA Intermediate solution: Compound or control (3 μL) diluted from stock solution (10 mM) with 297 μL 90.0% methanol/water. (Conc: 100 μM; 1.0% DMSO, 89.1% MeOH).
# (§5) Control cocktail intermediate solution: Each control (3 μL) was diluted with 291 μL 90.0% methanol/water.
# (§6) Diluted TA intermediate stock solution and PC control stock were made by transferring 80 μL of 100 μM TA stock solution into new tubes and then adding 720 μL of 1.0% DMSO in 50 mM potassium phosphate buffer (conc. 10 μM; 1.0% DMSO, 8.91% MeOH).
# (§7) Preparation of Liver microsomes working solution (1.25×)(final Conc.: 0.5 mg/mL).
# (§8) Acetonitrile:methanol (9:1, v/v)(including 200 ng/mL tolbutamide and 200 ng/ml labetalol hydrochloride as internal standards).
# (§9) Working solution: Intermediate solution (80 μL) was diluted with 720 μL 1.0% DMSO in 50 mM potassium phosphate buffer (Conc.: 10 μM; 1.0% DMSO, 8.91% MeOH)
# (§10) Procedure: Stock solution was added to each of the time point plates. Microsomes solution (360 μL/well), TA/PC (45 μL/well), and NADPH (45 μL/well) min. (Conc: 1.0 μM, 0.10% DMSO, 0.891% MeOH) were added to the incubation plates. To the T60 and NCF60 plate, TA (15 ul/well) and Microsomes (120 ul) were added. To the blank plate, microsome (50 ul/well) with stop solution (150 ul/well) were added. At the end of each time point, 50 ul/well was aliquoted from the incubation plate. The sampling plates were shaken for approximately 10 min. on a shaker and the samples were centrifuged at 4000 rpm for 15 min. Supernatant (120 μL) was transferred for LC/MS/MS.Compounds from Table 3 were incubated at 37° C. with liver microsomes (pooled from multiple donors) at 1 μM in the presence of a NADPH regenerating system at 0.5 mg/ml microsomal protein. Positive controls included testosterone (3A4 substrate), propafenone (2D6) and diclofenac (2C9), which were incubated with microsomes in the presence of an NADPH regenerating system. At time points (0, 5, 10, 20, 30 and 60 minutes), samples were removed and immediately mixed with cold acetonitrile containing the internal standard (IS). Test compounds incubated with microsomes without the NADPH regenerating system for 60 min are also included. A single point for each test condition (n=1) was obtained, and samples were analyzed by LC/MS/MS. Disappearance of the test compound was assessed based on peak area ratios of analyte/IS (no standard curve).
# [3] = tested on: S6K1 (Thr389) phosphorylation (mTORC1 activity) in wild-type (WT) 293T cells; experiment: Inhibition of S6K1 (Thr389) phosphorylation in wild-type 293T cells (ELISA); assay type: cell-based, human; conditions: for IC50: Homo sapiens, HEK-293T, 2 h, wild-type 293T cells, 2 hours treatment; for fold lower potency compared with RAD001 (by IC50) / extent of inhibition of S6K1 (Thr389) phosphorylation: wild-type cells; for extent of inhibition of S6K1 (Thr389) phosphorylation: with increasing concentrations
# Description: as §1, §2
# [4] = In vitro microsomal metabolic stability, CD-1 mouse liver microsomes; assay type: in vitro ADME; conditions: for half-life at 1 µM: CD-1, pH 7.2, 0.5 mg/ml protein, NADPH; for half-life at 1 µM / Remaining (T = 60 min) / Remaining (T = NCF60 min): Mouse liver microsomes; for Remaining (T = 60 min): with NADPH; for Remaining (T = NCF60 min): without NADPH regenerating system; for Remaining (T = 60 min) / Remaining (T = NCF60 min): 60 min
# Description: as §3, §4, §5, §6, §7, §8, §9, §10
# [5] = CD-1, mouse, mouse liver microsomes, pH 7.2
SMILES,inhibition of S6K1 (Thr389) phosphorylation in the absence of FKBP12 (in words) ([1]; FKBP12 knock-out cells),selectivity for FKBP12 compared with RAD001 (in words) [1],Remaining (T = 60 min) [2] [%],Remaining (T = NCF60 min) [2] [%],CLint scaled at 1 µM [2] [mL/min/kg],microsomal CLint at 1 µM [2] [µL/min/mg],half-life at 1 µM [2] [min],IC50 [3] [nM],fold lower potency compared with RAD001 (by IC50) [3] [fold],extent of inhibition of S6K1 (Thr389) phosphorylation [3],"microsomal CLint at 1 µM [4, 5] [µL/min/mg]",half-life at 1 µM [4] [min],Remaining (T = 60 min) [4] [%],Remaining (T = NCF60 min) [4] [%],"fold less potent compared with RAD001 ([1]; FKBP12 knock-out cells, at similar level of inhibition) [fold]",inhibition at 10 µM ([1]; FKBP12 knock-out cells) [%],"CLint scaled at 1 µM [4, 5] [mL/min/kg]"
"CO[C@@H]1C[C@H](C[C@@H](C)[C@@H]2CC[C@H](C)/C=C(\C)[C@@H](O)[C@@H](OC)C(=O)[C@H](C)C[C@H](C)/C=C/C=C/C=C(\C)C(Nc3ccc(Cl)cc3)C[C@@H]3CC[C@@H](C)[C@@](O)(O3)C(=O)C(=O)N3CCCCC3C(=O)O2)CC[C@H]1O (stereo partly drawn) [Compound 48, (3S,6S,7E,9R,10R,12R,14S,15E,17E,19E,23S,26R,27R,34aS)-21-((4-chlorophenyl)amino)-9,27-dihydroxy-3-((R)-1-((1S,3R,4R)-4-hydroxy-3-methoxycyclohexyl)propan-2-yl)-10-methoxy-6,8,12,14,20,26-hexamethyl-5,6,9,10,12,13,14,21,22,23,24,25,26,27,32,33,34,34a-octadecahydro-3H-23,27-epoxypyrido[2,1-c][1]oxa[4]azacyclohentriacontine-1,11,28,29(4H,31H)-tetraone]",did not inhibit S6K1 (Thr389)phosphorylation at any tested concentrations,relatively more selective to FKBP12 compared with RAD001,32,107,37.8,42.1,33,9.8,30,near complete inhibition,< 9.6,> 145,101,150,,,
"COc1cccc(NC2C[C@@H]3CC[C@@H](C)[C@@](O)(O3)C(=O)C(=O)N3CCCCC3C(=O)O[C@H]([C@H](C)C[C@@H]3CC[C@@H](O)[C@H](OC)C3)CC[C@H](C)/C=C(\C)[C@@H](O)[C@@H](OC)C(=O)[C@H](C)C[C@H](C)/C=C/C=C/C=C/2C)c1 (stereo partly drawn) [Compound 44, (3S,6S,7E,9R,10R,12R,14S,15E,17E,19E,23S,26R,27R,34aS)-9,27-dihydroxy-3-((R)-1-((1S,3R,4R)-4-hydroxy-3-methoxycyclohexyl)propan-2-yl)-10-methoxy-21-((3-methoxyphenyl)amino)-6,8,12,14,20,26-hexamethyl-5,6,9,10,12,13,14,21,22,23,24,25,26,27,32,33,34,34a-octadecahydro-3H-23,27-epoxypyrido[2,1-c][1]oxa[4]azacyclohentriacontine-1,11,28,29(4H,31H)-tetraone]",did not inhibit S6K1 phosphorylation at any tested concentration lower than 10 μM,relatively more selective for FKBP12 compared to RAD001,7.50,99,71.7,79.6,17.4,11,~17,completely inhibit,41,33.8,31,96,~100,~30,162
"CO[C@@H]1C[C@H](C[C@@H](C)[C@@H]2CC[C@H](C)/C=C(\C)[C@@H](O)[C@@H](OC)C(=O)[C@H](C)C[C@H](C)/C=C/C=C/C=C(\C)C(Nc3cccc(C#N)c3)C[C@@H]3CC[C@@H](C)[C@@](O)(O3)C(=O)C(=O)N3CCCCC3C(=O)O2)CC[C@H]1O (stereo partly drawn) [Compound 57, 3-(((3S,6S,7E,9R,10R,12R,14S,15E,17E,19E,23S,26R,27R,34aS)-9,27-dihydroxy-3-((R)-1-((1S,3R,4R)-4-hydroxy-3-methoxycyclohexyl)propan-2-yl)-10-methoxy-6,8,12,14,20,26-hexamethyl-1,11,28,29-tetraoxo-1,4,5,6,9,10,11,12,13,14,21,22,23,24,25,26,27,28,29,31,32,33,34,34a-tetracosahydro-3H-23,27-epoxypyrido[2,1-c][1]oxa[4]azacyclohentriacontin-21-yl)amino)benzonitrile]",inhibited the mTORC1 signaling in a dose dependent manner,relatively not FKBP12 selective,,,,,,3.68,44,near complete inhibition,,,,,,,
CO[C@@H]1C[C@H](C[C@@H](C)[C@@H]2CC[C@H](C)/C=C(\C)[C@@H](O)[C@@H](OC)C(=O)[C@H](C)C[C@H](C)/C=C/C=C/C=C(\C)C(NS(=O)(=O)c3ccccc3)C[C@@H]3CC[C@@H](C)[C@@](O)(O3)C(=O)C(=O)N3CCCC[C@H]3C(=O)O2)CC[C@H]1O (stereo partly drawn) [Compound 16],comparable to that of RAD001,,,,,,,,~28,complete inhibition,,,,,,~70,
"CO[C@@H]1C[C@H](C[C@@H](C)[C@@H]2CC[C@H](C)/C=C(\C)[C@@H](O)[C@@H](OC)C(=O)[C@H](C)C[C@H](C)/C=C/C=C/C=C(\C)C(N(C)c3ccccc3)C[C@@H]3CC[C@@H](C)[C@@](O)(O3)C(=O)C(=O)N3CCCCC3C(=O)O2)CC[C@H]1O (stereo partly drawn) [Compound 63, (3S,6S,7E,9R,10R,12R,14S,15E,17E,19E,23S,26R,27R,34aS)-9,27-dihydroxy-3-((R)-1-((1S,3R,4R)-4-hydroxy-3-methoxycyclohexyl)propan-2-yl)-10-methoxy-6,8,12,14,20,26-hexamethyl-21-(methyl(phenyl)amino)-5,6,9,10,12,13,14,21,22,23,24,25,26,27,32,33,34,34a-octadecahydro-3H-23,27-epoxypyrido[2,1-c][1]oxa[4]azacyclohentriacontine-1,11,28,29(4H,31H)-tetraone]",,more selective than RAD001,,,,,,2.43,10,near complete inhibition,,,,,,17,

# From patent US20240360153A1 (Regeneron Pharmaceuticals, Inc., priority 2023, published 2024)
